The text below walks through data of US4956376A, “Tetrazole carboxylic acids and esters and inhibition of blood platelet aggregation therewith” (Bristol-Myers Squibb Company, priority 1990, dated 1990).

For orientation: IC50 means the concentration at which inhibition is half-maximal.

The subject of the experiment is human platelet aggregation. It is filed as cell-based. As to conditions: human platelet rich plasma, ADP 0.5 mcg/mL.
Setting [1] is: Table 1, read-out: Inhibition of Human Platelet Aggregation of Formula I Compounds (IC50) vs. ADP.
Setting [2] is: Table 2, read-out: Inhibition of Human Platelet Aggregation of Formula II Compounds (IC50) Vs ADP.

≈ marks a conversion by molar mass, not a printed value. Like-named read-outs stand apart in the source and are kept apart here.

Description: The aggregometer method of Born, C. […] Clin. Med. 1964, 64, 548-599 was used to assess the in vitro activity of the various compounds as to the inhibition of adenosine diphosphate (ADP) and collagen-induced platelet aggregation. The human volunteer donor's arm is cleansed with 70% ethyl alcohol. A sterile 20 ml syringe and needle are used to withdraw 20 ml of blood. The blood is immediately added to a test tube containing 3.8% sodium citrate to prevent clotting (1 part citrate to 9 parts blood).
Platelet rich plasma (PRP) was separated by centrifugation for 10 minutes at 1000 rpm (140 xg) from citrated (3.8%) human blood. All glassware used for preparation of PRP is silicon treated. ADP in final concentration of 0.5 mcg/mL or 0.05 mL of a collagen suspension prepared according to the method described by Evans, G., et al., J. Exp. Med., 1968, 128, 877-894 was used to induce aggregation. The various compounds tested were dissolved in dimethylsulfoxide (DMSO) so that 5 mcl added to the platelet rich plasma would yield the desired test concentration. Vehicle control trials were done and compared with aggregation induced in platelet rich plasma containing various concentrations of the test compounds. Dose response curves were obtained and Inhibitor Concentration (IC50) values calculated.

Take `COC(=O)CCCCCCCCn1nnc(C(c2ccccc2)c2ccccc2)n1` [Example 1, Methyl 5-(diphenylmethyl)-2H-tetrazole-2-nonanoate]: the IC50 under setting [1] was > 32 µg/mL.
Still for that read-out and setting: the result for `O=C(O)CCCCCCCCn1nnc(C(c2ccccc2)c2ccccc2)n1` [Example 2, 5-(Diphenylmethyl)-2H-tetrazole-1-nonanoic acid] reads 4.2 µg/mL (≈ 10.7 µM).
In the case of `COC(=O)COc1cccc(CCn2nnc(C(c3ccccc3)c3ccccc3)n2)c1` [Example 3, Methyl [3-[2-[5-(diphenylmethyl)-2H-tetrazol-2-yl]ethyl]-phenoxy]acetate], the IC50 under setting [2] was found to be 0.9 µg/mL (≈ 2.1 µM).
Same read-out and setting: the result for `O=C(O)COc1cccc(CCn2nnc(C(c3ccccc3)c3ccccc3)n2)c1` [Example 4, [3-[2-[5-(Diphenylmethyl)-2H-tetrazol-2-yl]ethyl]phenoxy]-acetic Acid] reads 1.4 µg/mL (≈ 3.38 µM).
